Broadly, the IC50 is the concentration that gives 50% inhibition. Lower therefore signals inhibition by little substance.

Experiment [1] relates to adrenal steroidogenesis. Put plainly: Pilot single-blind forced-titration study of hormonal effects in patients with primary hyperaldosteronism. Type of experiment: in vivo, human. The following applies: oral 0.5 mg twice daily 2 weeks then 1.0 mg twice daily 2 weeks. How it is done: A pilot, single-blind, forced-titration study was performed to assess the hormonal effects of a compound of formula (I), 4-[(5R)-6,7-dihydro-5H-pyrrolo[1,2-c]imidazol-5-yl]-3-fluororbenzonitrile dihydrogen phosphate, in patients with diagnosed primary hyperaldosteronism. The clinical study was designed, implemented and reported in accordance with the ICH harmonized tripartite guidelines for good clinical practice with applicable local regulations. Each patient participated in a screening/washout period, a 2-week placebo run-in period, a 4-week treatment period, and a 1-week placebo wash-out. The treatment period consisted of the oral administration of compound of formula (I) twice daily at a dose of 0.5 mg for two weeks followed by a dose increase to 1.0 mg twice daily for another 2 weeks. Blood samples were taken at baseline, day 1 and 2, day 8, day 15, day 22, day 29 and 30 (all at predose i.e., 12 h after the last dose), and at the final study day 36. Each sample was assessed for aldosterone and immunoreactive active renin, 11-deoxycorticosterone, cortisol, 11-deoxycortisol and adrenocorticotropin (ACTH) after subjects were at rest for at least 60 minutes to avoid any postural or stress-induced value changes. Plasma aldosterone was measured using a commercially available radioimmunoassay kit (DPC, France). Plasma Active Renin was measured using the two monoclonal antibodies 3E8 and 125I-4G1 in a commercially available immunoradiometric kit (CisBio, France). Plasma 11-deoxycorticosterone, cortisol and 11-deoxycortisol were measured using a standardized LC-MS/MS method. Plasma ACTH was measured using a commercially available immunoradiometric kit (CisBio, France).
Statistical analysis of the pharmacodynamic biomarker were summarized using descriptive statistics as well as graphical and/or regression methods.

For experiment [2], the target named is T1, CYP11B1 (Rattus norvegicus, UniProt P15393).
T1 construct: from tissue; host or cells: whole animal: conscious male Sprague-Dawley rats under ACTH infusion (the adrenal gland as site of the enzyme comes from the background, b5)
T1 sequence (P15393 25-499): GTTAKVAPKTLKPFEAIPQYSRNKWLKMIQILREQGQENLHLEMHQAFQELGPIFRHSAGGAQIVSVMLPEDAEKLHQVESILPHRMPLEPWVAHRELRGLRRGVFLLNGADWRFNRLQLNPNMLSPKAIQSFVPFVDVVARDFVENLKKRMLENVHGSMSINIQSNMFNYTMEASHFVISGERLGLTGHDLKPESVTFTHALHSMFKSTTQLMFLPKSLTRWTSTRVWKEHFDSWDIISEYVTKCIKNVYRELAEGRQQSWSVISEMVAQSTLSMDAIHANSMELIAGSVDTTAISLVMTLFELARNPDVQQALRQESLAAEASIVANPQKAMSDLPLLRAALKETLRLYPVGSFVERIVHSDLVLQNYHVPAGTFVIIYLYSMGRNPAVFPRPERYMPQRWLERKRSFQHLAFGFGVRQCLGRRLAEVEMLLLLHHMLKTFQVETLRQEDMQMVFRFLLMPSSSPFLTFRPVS
The experiment can be described thus: In vivo CYP11B1 assay: plasma corticosterone concentration (PCC) in ACTH-infused conscious rats. To be noted: 10 mg/kg p.o., ACTH infusion. How it is done: (§1) The in vivo effects of compounds on plasma aldosterone concentration (PAC) and plasma glucocorticoid (corticosterone) concentration (PCC) were evaluated in conscious rats.
(§2) Male Sprague-Dawley rats (˜400-600 g body weight) were surgically instrumented with a femoral arterial and venous catheter. The catheters were exteriorized from the lower back through a stainless steel spring and swivel system that enabled the rats to move freely at all times. Rats were allowed at least one week to recover from the surgery before initiating the experiments.
(§3) On the morning of the experiment, a pretreatment blood sample was collected on heparin from the arterial catheter. The blood samples were spun in a refrigerated centrifuge to generate plasma. The plasma was stored frozen at −70° C. until the later measurement of PAC and PCC (by radioimmunoassay). Adrenocorticotropic hormone (ACTH(1-24), referred to herein as ACTH) was then administered as an intravenous (i.v.) bolus (100 ng/kg) followed by a continuous i.v. infusion (30 ng/kg/min) for 9 hours. After one hour of infusion, a baseline (time 0) blood sample was withdrawn from the arterial catheter and processed and stored as described above. The rats were then dosed (typically 0.01 to 100 mg/kg) with the test compound p.o. by oral gavage or parenterally via the arterial catheter (i.a.). Compounds were formulated in an appropriate vehicle (e.g., water (p.o.) or saline (i.a.)) at a physiologically compatible volume (typically 1-2 ml/kg). Additional blood samples were withdrawn at 0.083 (i.a. only), 0.25, 0.5, 1, 2, 3, 4, 5, 6, 7, 8, and 24 hours after dosing with compound and processed and stored as above for later determination of PAC, PCC, and plasma compound concentration (by LC/MS/MS). Oral bioavailability and traditional pharmacokinetic (PK) parameters were estimated from the plasma compound concentrations.
(§4) Based on the plasma compound concentration at each dose, the PK/PD (pharmacodynamic) profiles (reduction of PAC and PCC) of each compound were determined.

The target in experiment [3] is T2, Rat CYP11B2 (Rattus norvegicus, UniProt P30099).
T2 construct: made in house; host or cells: V79-4 cell line #305 (stably selected with geneticin and hygromycin); sonicated homogenate, 500 x g supernatant
T2 sequence (P30099 35-510): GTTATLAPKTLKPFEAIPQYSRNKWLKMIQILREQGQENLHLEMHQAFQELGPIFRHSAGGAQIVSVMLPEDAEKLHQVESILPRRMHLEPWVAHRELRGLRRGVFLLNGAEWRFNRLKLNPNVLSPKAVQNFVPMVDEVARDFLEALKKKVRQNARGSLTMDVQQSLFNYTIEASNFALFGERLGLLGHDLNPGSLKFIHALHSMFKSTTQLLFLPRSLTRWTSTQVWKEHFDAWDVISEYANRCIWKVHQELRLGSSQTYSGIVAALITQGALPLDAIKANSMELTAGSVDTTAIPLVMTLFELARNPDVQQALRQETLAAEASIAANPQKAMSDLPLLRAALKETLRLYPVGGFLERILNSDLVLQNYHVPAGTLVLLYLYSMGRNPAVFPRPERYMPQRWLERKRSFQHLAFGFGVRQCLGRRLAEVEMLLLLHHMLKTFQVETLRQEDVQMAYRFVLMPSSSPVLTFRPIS
Put plainly: In vitro rat CYP11B2 assay. In kind it is biochemical. The following applies: V79-4 cell homogenate, 11-deoxycorticosterone to aldosterone, SPA. The protocol:
Following 2 days of growth, cells are washed once with PBS, scraped and collected in PBS, and centrifuged at 1,300 rpm for 6 min. […] The sonication procedure is repeated 3 more times, with a 5 min incubation on ice between sonications. The sonicated material is then spun at 500×g for 4 min to remove unbroken cells. The supernatant is brought to a final glycerol concentration of 5%, flash-frozen in liquid nitrogen, and stored at −80° C.
The CYP11B2 assay is performed in 96-well U-bottom non-tissue-culture-treated plates. […] Plates are then centrifuged at 2,400 rpm for 6 min, and 100 μl of supernatant is removed for measurement of aldosterone content by scintillation proximity assay (SPA).
Measurement of aldosterone is performed using a 96-well plate format. […] Anti-mouse PVT SPA beads (50 μl) are then added to each well and incubated for 4 hr at room temperature prior to counting in a Microbeta plate counter. The amount of aldosterone in each sample is calculated by comparing with a standard curve generated using known quantities of the hormone.
Full concentration-response curves of an inhibitor are performed at least 3 times. The IC50 values are derived using a non-linear least squares curve-fitting program from DBS XLfit.

In experiment [4] the target is T3, Rat CYP11B1 (Rattus norvegicus, UniProt P15393).
T3 construct: made in house; host or cells: V79-4 cell line #259 (stably selected with geneticin and hygromycin); sonicated homogenate, 500 x g supernatant
T3 sequence (P15393 25-499): T1 sequence (P15393 25-499)
Put plainly: In vitro rat CYP11B1 assay. Type of experiment: biochemical. The following applies: V79-4 cell homogenate, 11-deoxycorticosterone to corticosterone, SPA. An excerpt:
Complete EDTA-free protease inhibitor tablets were obtained from Roche Applied Science (Indianapolis, Ind.). Dulbecco's modified Eagle medium (DMEM), antibiotic, geneticin, hygromycin, and fetal bovine serum (FBS) were products of Invitrogen (Carlsbad, Calif.). NADPH Regeneration Solution A and Solution B were purchased from BD Biosciences Clontech (Palo Alto, Calif.). Anti-sheep PVT SPA beads and [1,2,6,7-^3H(N)]corticosterone were acquired from Amersham (Piscataway, N.J.) and PerkinElmer (Boston, Mass.), respectively.
For enzyme preparation, #259 cells were seeded in 150 mm dishes in double-selection medium. Following 2 days of growth, cells were washed once with PBS, scraped and collected in PBS, and centrifuged at 1,300 rpm for 6 min. […] The sonication procedure was repeated 3 more times, with a 5 min rest on ice between sonications. The sonicated material was then spun at 500×g for 4 min to remove unbroken cells. The supernatant was brought to a final glycerol concentration of 5%, flash-frozen in liquid nitrogen, and stored at −80° C.
The CYP11B1 assays were performed in 96-well U-bottom non-tissue-culture-treated plates. […] Plates were then centrifuged at 2,400 rpm for 6 min, and 50 μl of supernatant was removed for measurement of corticosterone content by scintillation proximity assay (SPA).
Measurement of corticosterone was performed using a 96-well plate format. […] Anti-sheep PVT SPA beads (50 μl) were then added to each well and incubated overnight at room temperature prior to counting in a Microbeta plate counter. The amount of corticosterone in each sample was calculated by comparing with a standard curve generated using known quantities of the hormone.
Full concentration-response curves of an inhibitor were performed at least 3 times. The IC50 values were derived using a non-linear least squares curve-fitting program from IDBS XLfit.

For experiment [5], the target named is T4, CYP11B2 (Rattus norvegicus, UniProt P30099).
T4 construct: from tissue; host or cells: whole animal: conscious male Sprague-Dawley rats under ACTH infusion (the adrenal gland as site of the enzyme comes from the background, b5)
T4 sequence (P30099 35-510): T2 sequence (P30099 35-510)
Put plainly: In vivo assay: plasma aldosterone concentration (PAC) in ACTH-infused conscious rats. To be noted: 10 mg/kg p.o., ACTH infusion. How it is done:
as §1, §2, §3, §4

For `N#Cc1ccc([C@H]2CCc3cncn32)c(F)c1.O=P(O)(O)O` [4-[(5R)-6,7-dihydro-5H-pyrrolo[1,2-c]imidazol-5-yl]-3-fluororbenzonitrile dihydrogen phosphate], in experiment [1], the “plasma 11-deoxycorticosterone (P11DOCS)” value is “unexpectedly high build-up”, the “plasma 11-deoxycortisol (P11DOC)” value is recorded as “accumulation”, the “plasma ACTH levels” value is “increased ACTH levels” and the “plasma active renin level” value is “increased active renin level”. In addition, in experiment [1], the plasma aldosterone result is reported as “potent aldosterone suppression” and the plasma cortisol levels result is recorded as “decreasing cortisol levels”.

In the case of `N#Cc1ccc([C@H]2CCc3cncn32)c(F)c1` (single isomer, unassigned) [4-(6,7-Dihydro-5H-pyrrolo[1,2-c]imidazol-5-yl)-3-fluorobenzonitrile enantiomer B, 4-(6,7-Dihydro-5H-pyrrolo[1,2-c]imidazol-5-yl)-3-fluorobenzonitrile], the “% Reduction from baseline PCC t = 1 h” value in experiment [2] (1 h after dosing) came to 24%. Moreover, the “% Reduction from baseline PCC 8 h” value in experiment [2] (8 h after dosing) turned out to be 30%. In addition, the IC50 stood at 110 nM in experiment [3] and 495 nM in experiment [4]. In addition, in experiment [5] (1 h after dosing), the “% Reduction from baseline PAC t = 1 h” value is 65%. For the same molecule, in experiment [5] (8 h after dosing), the “% Reduction from baseline PAC 8 h” value stood at 72%.

The values above are taken from patent US8609862B2, “Use of an adrenal hormone-modifying agent” (Novartis AG, priority 2010, dated 2013).
